In patent publication US20230346717A1, “IDENTIFICATION AND USE OF COMPOUNDS IN THE TREATMENT OR PREVENTION OF SEVERE ACUTE RESPIRATORY SYNDROME CORONAVIRUS 2” (priority 2020, published 2023):
Structures can show the parent of a compound that is named as a salt.

Tests used:
[1] = test system: CTSL; assay type: cell-based, human; settings: ARPE-19/HPV-16 cells, 10 μM drug, 24 hours
[2] = test system: FYCO1; assay type: cell-based, human; settings: ARPE-19 cells
[3] = people with diabetes; cited from earlier work
[4] = people with heart failure; cited from earlier work
[5] = people with nonalcoholic fatty liver disease; cited from earlier work
[6] = rats; cited from earlier work
[7] = sepsis-induced acute lung injury in rats; cited from earlier work
[8] = people with dyslipidemia; cited from earlier work
[9] = within 14 days of treatment; cited from earlier work
[10] = 230 ventilated patients with ALI; cited from earlier work
[11] = 404 ALI patients and 177 controls; cited from earlier work
[12] = 492 patients; cited from earlier work

Row | Structure (SMILES) | log2(treated) CTSL [1] | log2 difference (CTSL, treated vs control) [1] | FYCO1 expression, Difference (treated vs control) [2] | FYCO1 expression, Treated [2] | further results
1 | CN1[C@@H]2CC[C@H]1C[C@@H](OC(=O)C(CO)c1ccccc1)C2 (some centres unmarked) [Atropine Sulfate] | 9.63 log2 | −0.70 log2 | – | – | –
2 | Cc1ccc(/C(=C\CN2CCCC2)c2ccccn2)cc1 [Triprolidine Hydrochloride] | 9.54 log2 | −0.79 log2 | −1.4935 | 6.4963 | –
3 | COC1=C(OC)C(=O)C(C/C=C(\C)CC/C=C(\C)CC/C=C(\C)CC/C=C(\C)CC/C=C(\C)CC/C=C(\C)CC/C=C(\C)CC/C=C(\C)CC/C=C(\C)CCC=C(C)C)=C(C)C1=O [CoQ10, Coenzyme Q10] | – | – | – | – | total cholesterol and low-density lipoprotein levels [3]: improve; mortality and cardiac markers [4]: improves; liver and systemic markers of inflammation [5]: improves; fibrosis in the lung and liver [6]: beneficial in attenuating fibrosis; pulmonary edema [7]: improved; survival [7]: improved; endothelial dysfunction [8]: improve
4 | COc1ccc2c(c1)c(CC(=O)O)c(C)n2C(=O)c1ccc(Cl)cc1 [indomethacin] | – | – | −1.539 | 4.949 | –
5 | CC(C)c1c(C(=O)Nc2ccccc2)c(-c2ccccc2)c(-c2ccc(F)cc2)n1CC[C@@H](O)C[C@@H](O)CC(=O)O [Atorvastatin] | – | – | – | – | decrease of the level of CoQ10 [9]: 49%
6 | CC(C)(C)C(=O)Oc1ccc(S(=O)(=O)Nc2ccccc2C(=O)NCC(=O)O)cc1 [sivelestat] | – | – | – | – | 30-day survival rate [10]: no significant effect; ICU stay [10]: shortened; duration of mechanical ventilation [10]: reduced; number of ventilator free days [11]: significantly improved; 28-day all-cause mortality [12]: no effect; ventilator free days [12]: no effect
7 | NCC(CC(=O)O)c1ccc(Cl)cc1 (centres unmarked) [Baclofen] | 9.58 log2 | −0.82 log2 | −1.2190 | 6.7222 | –
8 | CN(C)CCC(c1ccc(Br)cc1)c1ccccn1 (centres unmarked) [Brompheniramine Maleate] | 9.57 log2 | −0.75 log2 | – | – | –
9 | CCC1(c2ccccc2)C(=O)NCNC1=O [primidone] | – | – | −1.4959 | 6.4453 | –
10 | O=C1NC(=O)C(c2ccccc2)(c2ccccc2)N1 [Phenytoin] | 9.56 log2 | −0.70 log2 | – | – | –
